pIC50: −log10 of the molar value.
Tested on: NCI-H1341 complex spheroids, percent test/control
Assay: Anticancer human tumor NCI-H1341 cell line growth inhibition [AhR];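 also: spheroids exposed to agents for seven days before readout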
Conditions: for pIC50: curve of first compound; for viability, T/C: stronger effect = lower value
Summary of the method: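 Agents were dosed in half-log steps down from roughly clinical Cmax, or from 10 microM where Cmax was unknown, alone and with AhR antagonists. Read-out: percent test/control growth of tumor spheroids containing HUVEC and MSC stromal cells.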

[1] = second compound 0.1 µM, first compound 0.00949 µM
[2] = second compound 0.1 µM, first compound 0.03 µM
[3] = second compound 0.1 µM, first compound 0.0949 µM
[4] = second compound 0.1 µM, first compound 0.3 µM
[5] = second compound 0.1 µM, first compound 0.949 µM
[6] = second compound 0.1 µM, first compound 3 µM
[7] = second compound 0.316 µM, first compound 0.00949 µM
[8] = second compound 0.316 µM, first compound 0.03 µM
[9] = second compound 0.316 µM, first compound 0.0949 µM
[10] = second compound 0.316 µM, first compound 0.3 µM
[11] = second compound 0.316 µM, first compound 0.949 µM
[12] = second compound 0.316 µM, first compound 3 µM
[13] = second compound 1 µM, first compound 0.00949 µM
[14] = second compound 1 µM, first compound 0.03 µM
[15] = second compound 1 µM, first compound 0.0949 µM
[16] = second compound 1 µM, first compound 0.3 µM
[17] = second compound 1 µM, first compound 0.949 µM
[18] = second compound 1 µM, first compound 3 µM
[19] = second compound 3.16 µM, first compound 0.00949 µM
[20] = second compound 3.16 µM, first compound 0.03 µM
[21] = second compound 3.16 µM, first compound 0.0949 µM
[22] = second compound 3.16 µM, first compound 0.3 µM
[23] = second compound 3.16 µM, first compound 0.949 µM
[24] = second compound 3.16 µM, first compound 3 µM
[25] = second compound 10 µM, first compound 0.00949 µM
[26] = second compound 10 µM, first compound 0.03 µM
[27] = second compound 10 µM, first compound 0.0949 µM
[28] = second compound 10 µM, first compound 0.3 µM
[29] = second compound 10 µM, first compound 0.949 µM
[30] = second compound 10 µM, first compound 3 µM

**Q.** What does the source list for CCN(c1cc(-c2ccc(CN3CCOCC3)cc2)cc(C(=O)NCc2c(C)cc(C)[nH]c2=O)c1C)C1CCOCC1 + Cc1ccccc1N=Nc1ccc(NC(=O)c2ccnn2C)c(C)c1?
**A.** pIC50 (second compound 0.1 µM): < 5.52; pIC50 (second compound 0.316 µM): < 5.52; pIC50 (second compound 1 µM): < 5.52; pIC50 (second compound 3.16 µM): < 5.52; pIC50 (second compound 10 µM): < 5.52; viability, T/C [1]: 95.8%; viability, T/C [2]: 85.1%; viability, T/C [3]: 75.5%; viability, T/C [4]: 104%; viability, T/C [5]: 90.9%; viability, T/C [6]: 107%; viability, T/C [7]: 90.2%; viability, T/C [8]: 103%; viability, T/C [9]: 89.6%; viability, T/C [10]: 87.1%; viability, T/C [11]: 104%; viability, T/C [12]: 73.1%; viability, T/C [13]: 91.6%; viability, T/C [14]: 102%; viability, T/C [15]: 94.7%; viability, T/C [16]: 90.6%; viability, T/C [17]: 79.8%; viability, T/C [18]: 100%; viability, T/C [19]: 75.2%; viability, T/C [20]: 75.1%; viability, T/C [21]: 70.6%; viability, T/C [22]: 71%; viability, T/C [23]: 73.3%; viability, T/C [24]: 60.6%; viability, T/C [25]: 54.9%; viability, T/C [26]: 45.6%; viability, T/C [27]: 54.6%; viability, T/C [28]: 52.2%; viability, T/C [29]: 49.8%; viability, T/C [30]: 66.5%

**Q.** With CCN(c1cc(-c2ccc(CN3CCOCC3)cc2)cc(C(=O)NCc2c(C)cc(C)[nH]c2=O)c1C)C1CCOCC1 + CC(CO)NC(=O)c1cc(-c2ccc(Cl)cc2)nn(-c2cnn(C)c2)c1=O as the compound, how does the pIC50 (second compound 0.1 µM) read?
**A.** Its pIC50 is < 5.52.

**Q.** What about the pIC50 (second compound 0.316 µM) of the same compound?
**A.** Its pIC50 is < 5.52.

**Q.** What about the pIC50 (second compound 1 µM) of the same compound?
**A.** Its pIC50 is < 5.52.

**Q.** And the pIC50 (second compound 3.16 µM)?
**A.** The pIC50 was < 5.52.

**Q.** And the pIC50 (second compound 10 µM)?
**A.** Its pIC50 is < 5.52.

**Q.** And the viability, T/C [1]?
**A.** The viability, T/C was 89.1%.

**Q.** And the viability, T/C [2]?
**A.** Its viability, T/C is 72.4%.

**Q.** And the viability, T/C [3]?
**A.** Its viability, T/C is 84%.

**Q.** And the viability, T/C [4]?
**A.** The viability, T/C was 68.1%.

**Q.** And the viability, T/C [5]?
**A.** The viability, T/C was 75.2%.

**Q.** What about the viability, T/C [6] of the same compound?
**A.** The viability, T/C was 57.6%.

**Q.** And the viability, T/C [7]?
**A.** The viability, T/C was 81.9%.

**Q.** And the viability, T/C [8]?
**A.** The viability, T/C was 77%.

**Q.** What about the viability, T/C [9] of the same compound?
**A.** The viability, T/C was 77.9%.

**Q.** What about the viability, T/C [10] of the same compound?
**A.** Its viability, T/C is 65.8%.

**Q.** And the viability, T/C [11]?
**A.** Its viability, T/C is 65.7%.

**Q.** And the viability, T/C [12]?
**A.** The viability, T/C was 59.7%.

**Q.** And the viability, T/C [13]?
**A.** The viability, T/C was 91.7%.

**Q.** What about the viability, T/C [14] of the same compound?
**A.** The viability, T/C was 73.6%.

**Q.** What about the viability, T/C [15] of the same compound?
**A.** Its viability, T/C is 78%.

**Q.** What about the viability, T/C [16] of the same compound?
**A.** Its viability, T/C is 63%.

**Q.** And the viability, T/C [17]?
**A.** Its viability, T/C is 63.1%.

**Q.** What about the viability, T/C [18] of the same compound?
**A.** The viability, T/C was 62%.

**Q.** And the viability, T/C [19]?
**A.** The viability, T/C was 84.1%.

**Q.** What about the viability, T/C [20] of the same compound?
**A.** The viability, T/C was 82.5%.

**Q.** What about the viability, T/C [21] of the same compound?
**A.** The viability, T/C was 74.9%.

**Q.** What about the viability, T/C [22] of the same compound?
**A.** Its viability, T/C is 71.4%.

**Q.** And the viability, T/C [23]?
**A.** Its viability, T/C is 61.9%.

**Q.** And the viability, T/C [24]?
**A.** The viability, T/C was 62.4%.

**Q.** What about the viability, T/C [25] of the same compound?
**A.** The viability, T/C was 67.5%.

**Q.** And the viability, T/C [26]?
**A.** Its viability, T/C is 79.2%.

**Q.** What about the viability, T/C [27] of the same compound?
**A.** The viability, T/C was 73.3%.

**Q.** What about the viability, T/C [28] of the same compound?
**A.** Its viability, T/C is 70.4%.

**Q.** What about the viability, T/C [29] of the same compound?
**A.** The viability, T/C was 65.7%.

**Q.** And the viability, T/C [30]?
**A.** Its viability, T/C is 57.4%.

**Q.** How did the pIC50 (second compound 0.1 µM) turn out when COc1ccc([C@@H](O)c2cc(-c3ncnc4cc(N5CCOCC5)ccc34)c(F)cc2Cl)nn1 + Cc1cncc(-c2nc(NCCc3c[nH]c4ccccc34)c3ncn(C(C)C)c3n2)c1 was run?
**A.** Its pIC50 is 5.97.

**Q.** And the pIC50 (second compound 0.316 µM)?
**A.** The pIC50 was 6.23.

**Q.** What about the pIC50 (second compound 1 µM) of the same compound?
**A.** Its pIC50 is 6.16.

**Q.** What about the pIC50 (second compound 3.16 µM) of the same compound?
**A.** Its pIC50 is 6.44.

**Q.** And the pIC50 (second compound 10 µM)?
**A.** The pIC50 was > 7.50.

**Q.** And the viability, T/C (second compound 0.1 µM, first compound 0.0316 µM)?
**A.** Its viability, T/C is 83.7%.

**Q.** And the viability, T/C (second compound 0.1 µM, first compound 0.1 µM)?
**A.** The viability, T/C was 75.9%.

**Q.** What about the viability, T/C (second compound 0.1 µM, first compound 0.316 µM) of the same compound?
**A.** The viability, T/C was 75.9%.

**Q.** And the viability, T/C (second compound 0.1 µM, first compound 1 µM)?
**A.** The viability, T/C was 49.9%.

**Q.** And the viability, T/C (second compound 0.1 µM, first compound 3.16 µM)?
**A.** The viability, T/C was 24.6%.

**Q.** What about the viability, T/C (second compound 0.1 µM, first compound 10 µM) of the same compound?
**A.** The viability, T/C was 5.31%.

**Q.** And the viability, T/C (second compound 0.316 µM, first compound 0.0316 µM)?
**A.** Its viability, T/C is 76.3%.

**Q.** What about the viability, T/C (second compound 0.316 µM, first compound 0.1 µM) of the same compound?
**A.** The viability, T/C was 69.3%.

**Q.** What about the viability, T/C (second compound 0.316 µM, first compound 0.316 µM) of the same compound?
**A.** Its viability, T/C is 59.9%.

**Q.** And the viability, T/C (second compound 0.316 µM, first compound 1 µM)?
**A.** The viability, T/C was 42.6%.

**Q.** What about the viability, T/C (second compound 0.316 µM, first compound 3.16 µM) of the same compound?
**A.** The viability, T/C was 20.3%.

**Q.** And the viability, T/C (second compound 0.316 µM, first compound 10 µM)?
**A.** The viability, T/C was 5.39%.

**Q.** And the viability, T/C (second compound 1 µM, first compound 0.0316 µM)?
**A.** The viability, T/C was 68%.

**Q.** And the viability, T/C (second compound 1 µM, first compound 0.1 µM)?
**A.** Its viability, T/C is 62.3%.

**Q.** What about the viability, T/C (second compound 1 µM, first compound 0.316 µM) of the same compound?
**A.** Its viability, T/C is 61.8%.

**Q.** What about the viability, T/C (second compound 1 µM, first compound 1 µM) of the same compound?
**A.** The viability, T/C was 44.6%.

**Q.** And the viability, T/C (second compound 1 µM, first compound 3.16 µM)?
**A.** The viability, T/C was 17.4%.

**Q.** And the viability, T/C (second compound 1 µM, first compound 10 µM)?
**A.** Its viability, T/C is 5.3%.

**Q.** What about the viability, T/C (second compound 3.16 µM, first compound 0.0316 µM) of the same compound?
**A.** The viability, T/C was 71.8%.

**Q.** And the viability, T/C (second compound 3.16 µM, first compound 0.1 µM)?
**A.** Its viability, T/C is 67.6%.

**Q.** And the viability, T/C (second compound 3.16 µM, first compound 0.316 µM)?
**A.** The viability, T/C was 46%.

**Q.** And the viability, T/C (second compound 3.16 µM, first compound 1 µM)?
**A.** Its viability, T/C is 42.1%.

**Q.** What about the viability, T/C (second compound 3.16 µM, first compound 3.16 µM) of the same compound?
**A.** Its viability, T/C is 16.2%.

**Q.** And the viability, T/C (second compound 3.16 µM, first compound 10 µM)?
**A.** The viability, T/C was 4.69%.

**Q.** And the viability, T/C (second compound 10 µM, first compound 0.0316 µM)?
**A.** Its viability, T/C is 18.4%.

**Q.** What about the viability, T/C (second compound 10 µM, first compound 0.1 µM) of the same compound?
**A.** Its viability, T/C is 16.3%.

**Q.** What about the viability, T/C (second compound 10 µM, first compound 0.316 µM) of the same compound?
**A.** The viability, T/C was 13.7%.

**Q.** And the viability, T/C (second compound 10 µM, first compound 1 µM)?
**A.** Its viability, T/C is 7.45%.

**Q.** And the viability, T/C (second compound 10 µM, first compound 3.16 µM)?
**A.** Its viability, T/C is 5.7%.

**Q.** What about the viability, T/C (second compound 10 µM, first compound 10 µM) of the same compound?
**A.** The viability, T/C was 3.93%.

Reference: PubChem BioAssay AID1919014 (Molecular Pharmacology Branch, DTP, NCI, 2023)
